From patent US12023315B2, “Pharmaceutical compositions and methods utilizing neostigmine and an NK-1 antagonist for treating myasthenia gravis” (priority 2017, dated 2024)

System: gastro-intestinal side effects of neostigmine in human subjects
Assay: Phase I single-blind, placebo-controlled study: single oral neostigmine bromide with or without single oral aprepitant
Assay type: in vivo
Conditions: human volunteers; single oral aprepitant (up to 125 mg) co-administered with first intolerable oral dose (FID) of neostigmine bromide; follow-up up to 8 hours
Procedure: The ability of the NK1-antagonists for preventing the adverse effects of orally administered neostigmine bromide in humans is tested.
A Phase I study is conducted in human subjects receiving a single oral dose of neostigmine bromide with or without a single oral dose of aprepitant hydrochloride dihydrate, as a representative NK1-antagonist. The study is a single center, single-blind, placebo-controlled study.
To be enrolled in the study, participants are to meet the following inclusion/exclusion criteria:
Key Inclusion Criteria • 1. Male or female volunteers between the ages of 18 and 60 years inclusive are required to be in good health, to refrain from consuming xanthine, quinine and caffeine containing beverages, and to refrain from prolonged intensive physical exercise during the study conduct. • 2. […] Subjects had to be in good health according to their medical history including personal and family psychiatric history, physical examination, ECG, vital signs, and laboratory tests. […] Subjects had to be able to swallow multiple pills simultaneously.
Key Exclusion Criteria • 1. Any clinically relevant acute or chronic disease which could interfere with the subjects' safety during the trial, expose them to undue risk, or interfere with the study objectives. • 2. […]

C[C@@H](O[C@H]1OCCN(Cc2nc(=O)[nH][nH]2)[C@H]1c1ccc(F)cc1)c1cc(C(F)(F)F)cc(C(F)(F)F)c1 [aprepitant, 5-[[(2R,3S)-2-[(1R)-1-[3,5-bis(trifluoromethyl)phenyl]ethoxy]-3-(4-fluorophenyl)-4-morpholinyl]methyl]-1,2-dihydro-3H-1,2,4-triazol-3-one]
occurrence of gastro-intestinal AEs with neostigmine: prevents or attenuates the occurrence of gastro-intestinal AEs
